Where two headings read alike, the source gives them in different places.
How the values were obtained:
thrombin = thrombin (Homo sapiens, UniProt P00734); settings: cited from earlier work
plasma = assay: activated partial thromboplastin time (APTT) of plasma from patients recovered from heparin-induced thrombocytopenia; design: species or system human; settings: concentrations used in the platelet studies, FIGS. 12A and 12B
Protocol: We isolated whole blood from patients who had recovered from heparin-induced thrombocytopenia. We then centrifuged the blood at 4° C. for 15 minutes at 2,000× g in a Sorval rotor to obtain plasma. […] We measured APTT semi-automatically using a Coagamate XC (General Diagnostics Organon Teknika).

## Hirudin
thrombin; overall tight binding, read-out: Kd, binding to thrombin in a 1:1 stoichiometric complex
  Kd: ~0.02 nM
thrombin; site separate from the catalytic site, read-out: Kd, "low" affinity site on the thrombin molecule
  Kd: ~10 nM

## heparin
plasma
  prolongation of APTT: sufficient to prolong APTT into the desired therapeutic range

From patent US5256559A, “Methods and compositions for inhibiting platelet aggregation” (Biogen, Inc., priority 1991, dated 1993)
